Source: patent US4748179A, “β-carbolin-3-carboxylic acid derivatives and their use as benzodiazepine antagonists” (Schering Aktiengesellschaft, priority 1983, dated 1988)

Tests used:
benzodiazepine receptors [1] = test: Displacement of 3H-flunitrazepam specific binding in vitro, rat forebrain membrane suspension; settings: 3H-flunitrazepam 1.0 nM, 0° C., pH 7.1
[2] = Inhibition of motor coordination (ataxia); type: in vivo; settings: mouse, sc, mice, 30 minutes after subcutaneous administration, read-out: Inhibition of/Ataxia (motor-incoordination)
Method: The inhibition of motor coordination in mice was also studied 30 minutes after subcutaneous administration in accordance with a method described in the litterature (Buus Lassen et al., Acta Pharmacol. et Toxicol., 1971, 39, 1-16).

benzodiazepine receptors [3] = test: In vivo displacement of 3H-flunitrazepam binding to benzodiazepine receptors in living brain; settings: mice, usually subcutaneously, 3H-flunitrazepam i.v. 15 minutes later
Text: The pharmaceutical properties of the compounds of the invention have been investigated by determining their capability for displacing radioactively labelled flunitrazepam from such benzodiazepine receptors, and their ability to antagonize pentazole induced convulsions.
The displacement activity of the compounds of the invention has been determined by determining the IC50 value and ED50 value.
The ED50 value represents the dose (mg/kg) of a test substance which causes the specific binding of flunitrazepam to benzodiazepine receptors in a living brain to be reduced to 50% of the control value. Such an in vivo test is carried out as follows:
Groups of mice are injected with the test substance at different doses and usually subcutaneously. 15 minutes later ^3 H-flunitrazepam is giving intravenously to the mice and after further 20 minutes the mice are killed, […]. The ED50 value is determined from dose-response curves.

[4] = test system: pentazole-induced convulsions; test: Antagonism of pentazole-induced convulsions; type: in vivo; settings: ip; read-out: Antagonism of pentazole-induced convulsions ED50 i.p.
Text: The antagonism of pentazole induced convulsions was investigated.
The test has been performed according to known test models in pharmacology,e.g., as described in R. A. Turner, Screening Methods in Pharmacology, Academic Press, N.Y. and London 1965, esp. p. 164 ff. or Woodbury, P. M., Perry, I. K. and Schmidt, R. P. Antiepileptic Drugs, Raven Press, N.Y. 1972.

[5] = test system: lorazepam-induced ataxia in NMRI mice; test: Antagonism of benzodiazepine (lorazepam) action in motor incoordination, rotating rod; type: in vivo
Method: Antagonism of benzodiazepine action in motor incoordination.
NMRI mice (20-25 g) were placed on a horizontal wooden rod (diameter 4.3 cm), rotating at a rate of 6 min^-1, 8 cm above the bench. […] The ability of the compounds of this invention to antagonize the effect of benzodiazepine in motor coordination has been determined by determining the ED50 -value. […] The test was performed as follows:
At least 3 groups of mice (8 mice in each group) were injected intraperitoneally with 2 mg/kg lorazepam. 15 minutes later each group of mice were injected with different doses of the test compounds and after further 15 minutes the test for ataxia was performed. Based on the data obtained the ED50 -value was calculated.

[6] = test system: pentazole-induced seizures in diazepam-treated NMRI mice; test: Antagonism of benzodiazepine (diazepam) action on pentazole-induced seizures; type: in vivo; settings: i.p., against 5 mg/kg diazepam i.p.; pentazole 150 mg/kg s.c.; clonic seizures in 50% of animals
Method: Antagonism of Benzodiazepine action on pentazol-induced seizures in NMRI mice (20-25 g).
15 minutes later each group of mice were injected intraperitoneally with different doses of the test compounds and after further 15 minutes the mice received 150 mg/kg pentazol, administered subcutaneously. Clonic seizures within the next 30 minutes were noted. Based on the data obtained the ED50 value was calculated.

With `CCOC(=O)c1ncc2[nH]c3cccc(OC)c3c2c1CC` [CH3, CH3 CH2, 4-Ethyl-5-methoxy-β-carboline-3-carboxylic acid ethylester] the “3H-flunitrazepam binding in vitro IC50” value (benzodiazepine receptors [1]) was 1.4 ng/mL, the ED50 at 0.5 h [2] was over 100 mg/kg and the “3H-flunitrazepam binding in vivo ED50” value (benzodiazepine receptors [3]) was 3.0 mg/kg. The ED50 [4] was over 100 mg/kg.

With `CN1C(=O)CN=C(c2ccccc2)c2cc(Cl)ccc21` [Diazepam, reference compound] the “3H-flunitrazepam binding in vitro IC50” value (benzodiazepine receptors [1]) was 3 ng/mL, the ED50 at 0.5 h [2] was 3 mg/kg and the “3H-flunitrazepam binding in vivo ED50” value (benzodiazepine receptors [3]) was 1.5 mg/kg. It also gave an ED50 [4] of 3 mg/kg.

In the case of `CCOC(=O)c1cc2c(cn1)[nH]c1cccc(OC(C)C)c12` [(CH3)2 CH, H, 5-Isopropoxy-β-carboline-3-carboxylic acid ethylester], the “3H-flunitrazepam binding in vitro IC50” value (benzodiazepine receptors [1]) is reported as 0.4 ng/mL, the ED50 at 0.5 h [2] is reported as over 100 mg/kg and the “3H-flunitrazepam binding in vivo ED50” value (benzodiazepine receptors [3]) is reported as 6.4 mg/kg. The ED50 [4] was over 100 mg/kg.

For `O=C1Nc2ccc(Cl)cc2C(c2ccccc2Cl)=NC1O` (centres unmarked) [Lorazepam, reference compound], the “3H-flunitrazepam binding in vitro IC50” value (benzodiazepine receptors [1]) was 1 ng/mL, the ED50 at 0.5 h [2] was 0.3 mg/kg and the “3H-flunitrazepam binding in vivo ED50” value (benzodiazepine receptors [3]) was 0.2 mg/kg. For the same molecule, the ED50 [4] was 0.1 mg/kg and the “induction of ataxia (more than three falls from the rod within 2 min)” value ([5]; 2 mg/kg i.p. 30 min before test) was “induced ataxia in all animals”.

For `CCOC(=O)c1ncc2[nH]c3cccc(OC(C)C)c3c2c1C` [(CH3)2 CH, CH3, 5-isopropoxy-4-methyl-β-carboline-3-carboxylic acid ethylester], the “3H-flunitrazepam binding in vitro IC50” value (benzodiazepine receptors [1]) was 0.6 ng/mL, the “ED50, antagonism of benzodiazepine action on pentazole-induced seizures” value [6] was 0.7 mg/kg and the ED50 at 0.5 h [2] was over 100 mg/kg. For the same molecule, the “3H-flunitrazepam binding in vivo ED50” value (benzodiazepine receptors [3]) was 0.3 mg/kg, the ED50 [4] was over 100 mg/kg and the “ED50, antagonism of benzodiazepine action in motor incoordination” value ([5]; against 2 mg/kg lorazepam i.p., ataxia in 50% of animals, compound 15 minutes after lorazepam) was 1.0 mg/kg.
